Assay results reported in PubChem BioAssay AID1259411 (Chemical Carcinogenesis Research Information System (CCRIS), 2018).
Activity calls are given as the source filed them. No rule for the calls is given here.

Tested on: rodent carcinogenicity bioassays, tumor incidence
Test: CCRIS carcinogenicity studies
How it was run: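 Archive of carcinogenicity, mutagenicity, tumor promotion and tumor inhibition results drawn from journals, NCI reports and other sources, expert-reviewed; covers 1985-2011 and is no longer updated.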

FC(F)Cl
carcinogen call (Species: MOUSE, Strain/Sex: SWISS/FEMALE, Route: INHALATION, Dose: 0, 1000, 5000 PPM 4 HR/D 5 D/WK FOR 78 WK (STUDY DURATION: LIFETIME), Dose: 0, 1000, 5000 PPM 4 HR/D 5 D/WK FOR 78 WK (STUDY DURATION: LIFETIME)): inactive; negative | carcinogen call (Species: MOUSE, Strain/Sex: SWISS/MALE, Route: INHALATION, Dose: 0, 1000, 5000 PPM 4 HR/D 5 D/WK FOR 78 WK (STUDY DURATION: LIFETIME), Dose: 0, 1000, 5000 PPM 4 HR/D 5 D/WK FOR 78 WK (STUDY DURATION: LIFETIME)): inactive; negative | carcinogen call (Species: RAT, Strain/Sex: SPRAGUE-DAWLEY/FEMALE, Route: INHALATION, Dose: 0, 1000, 5000 PPM 4 HR/D 5 D/WK FOR 104 WK (STUDY DURATION: LIFETIME), Dose: 0, 1000, 5000 PPM 4 HR/D 5 D/WK FOR 104 WK (STUDY DURATION: LIFETIME)): inactive; negative | carcinogen call (Species: RAT, Strain/Sex: SPRAGUE-DAWLEY/FEMALE, Route: INHALATION, Dose: 0, 1000, 5000 PPM IN AIR 4 HR/D 5 D/WK FOR 104 WK (STUDY DURATION: LIFETIME), Dose: 0, 1000, 5000 PPM IN AIR 4 HR/D 5 D/WK FOR 104 WK (STUDY DURATION: LIFETIME), Tumor Site: Type of Lesion: [BRAIN WAS ONLY SITE EVALUATED]): inactive; negative | carcinogen call (Species: RAT, Strain/Sex: SPRAGUE-DAWLEY/MALE, Route: INHALATION, Dose: 0, 1000, 5000 PPM 4 HR/D 5 D/WK FOR 104 WK (STUDY DURATION: LIFETIME), Dose: 0, 1000, 5000 PPM 4 HR/D 5 D/WK FOR 104 WK (STUDY DURATION: LIFETIME)): inactive; negative | carcinogen call (Species: RAT, Strain/Sex: SPRAGUE-DAWLEY/MALE, Route: INHALATION, Dose: 0, 1000, 5000 PPM IN AIR 4 HR/D 5 D/WK FOR 104 WK (STUDY DURATION: LIFETIME), Dose: 0, 1000, 5000 PPM IN AIR 4 HR/D 5 D/WK FOR 104 WK (STUDY DURATION: LIFETIME), Tumor Site: Type of Lesion: [BRAIN WAS ONLY SITE EVALUATED]): inactive; negative

O[C@@H]1[C@@H]2O[C@@H]2c2c(ccc3cc4ccc5ccccc5c4nc23)[C@H]1O
carcinogen call (Species: MOUSE, Strain/Sex: CD-1/FEMALE, Route: INTRAPERITONEAL, Dose: 0, 28 NMOL (TOTAL DOSE) ADMINISTERED AS 1/7 OF DOSE WITHIN 24 HR AFTER BIRTH, 2/7 OF DOSE AT 8 D OLD, 4/7 OF DOSE AT 15, Tumor Site: Type of Lesion: LUNG: TUMOR): active; positive | carcinogen call (Species: MOUSE, Strain/Sex: CD-1/FEMALE, Route: INTRAPERITONEAL, Dose: 0, 70, 175 NMOL (TOTAL DOSE) ADMINISTERED AS 1/7 OF DOSE WITHIN 24 HR AFTER BIRTH, 2/7 OF DOSE AT 8 D OLD, 4/7 OF DOSE A, Dose: 0, 70, 175 NMOL (TOTAL DOSE) ADMINISTERED AS 1/7 OF DOSE WITHIN 24 HR AFTER BIRTH, 2/7 OF DOSE AT 8 D OLD, 4/7 OF DOSE A, Tumor Site: Type of Lesion: LIVER: TUMOR, LUNG: TUMOR): active; positive | carcinogen call (Species: MOUSE, Strain/Sex: CD-1/MALE, Route: INTRAPERITONEAL, Dose: 0, 28 NMOL (TOTAL DOSE) ADMINISTERED AS 1/7 OF DOSE WITHIN 24 HR AFTER BIRTH, 2/7 OF DOSE AT 8 D OLD, 4/7 OF DOSE AT 15, Tumor Site: Type of Lesion: LIVER: TUMOR, LUNG: TUMOR): active; positive | carcinogen call (Species: MOUSE, Strain/Sex: CD-1/MALE, Route: INTRAPERITONEAL, Dose: 0, 70, 175 NMOL (TOTAL DOSE) ADMINISTERED AS 1/7 OF DOSE WITHIN 24 HR AFTER BIRTH, 2/7 OF DOSE AT 8 D OLD, 4/7 OF DOSE A, Dose: 0, 70, 175 NMOL (TOTAL DOSE) ADMINISTERED AS 1/7 OF DOSE WITHIN 24 HR AFTER BIRTH, 2/7 OF DOSE AT 8 D OLD, 4/7 OF DOSE A, Tumor Site: Type of Lesion: LIVER: TUMOR, LUNG: TUMOR): active; positive

Cc1cccc2c1cc(C)c1c3c(ccc12)C(O)C(O)C1OC31 (stereo not drawn)
carcinogen call (Species: MOUSE, Strain/Sex: ICR/FEMALE, Route: INTRAPERITONEAL, Dose: 0, 8 NMOL IN 5 µL DMSO TO PUPS ON D 1/OF LIFE THEN 16 NMOL IN 10 µL ON D 8 AND 3 NMOL IN 20 µL ON D 15 (STUDY DURATION:, Tumor Site: Type of Lesion: LUNG: TUMOR): active; positive | carcinogen call (Species: MOUSE, Strain/Sex: ICR/MALE, Route: INTRAPERITONEAL, Dose: 0, 8 NMOL IN 5 µL DMSO TO PUPS ON D 1/OF LIFE THEN 16 NMOL IN 10 µL ON D 8 AND 3 NMOL IN 20 µL ON D 15 (STUDY DURATION:, Tumor Site: Type of Lesion: LUNG: TUMOR, LIVER: TUMOR): active; positive

CC(C)[C@@H]1CC[C@@H](C)C[C@H]1O
carcinogen call (Species: MOUSE, Strain/Sex: B6C3F1/FEMALE, Route: ORAL, Dose: 0, 2000, 4000 PPM IN DIET, Dose: 0, 2000, 4000 PPM IN DIET): inactive; negative | carcinogen call (Species: MOUSE, Strain/Sex: B6C3F1/MALE, Route: ORAL, Dose: 0, 2000, 4000 PPM IN DIET, Dose: 0, 2000, 4000 PPM IN DIET): inactive; negative | carcinogen call (Species: RAT, Strain/Sex: F344/FEMALE, Route: ORAL, Dose: 0, 3750, 7500 PPM IN DIET, Dose: 0, 3750, 7500 PPM IN DIET): inactive; negative | carcinogen call (Species: RAT, Strain/Sex: F344/MALE, Route: ORAL, Dose: 0, 3750, 7500 PPM IN DIET, Dose: 0, 3750, 7500 PPM IN DIET): inactive; negative

ClC(Cl)C(Cl)(Cl)Cl
carcinogen call (Species: MOUSE, Strain/Sex: B6C3F1/FEMALE, Route: GAVAGE, Dose: 250, 500 MG/KG IN CORN OIL FOR 41-103 WK (STUDY DURATION: 41-103 WK), Tumor Site: Type of Lesion: LIVER: HEPATOCELLULAR ADENOMA, CARCINOMA): active; positive | carcinogen call (Species: MOUSE, Strain/Sex: B6C3F1/MALE, Route: GAVAGE, Dose: 250, 500 MG/KG IN CORN OIL FOR 41-103 WK (STUDY DURATION: 41-103 WK), Tumor Site: Type of Lesion: LIVER: HEPATOCELLULAR CARCINOMA): active; positive | carcinogen call (Species: RAT, Strain/Sex: F344/FEMALE, Route: GAVAGE, Dose: 0, 75, 150 MG/KG IN CORN OIL FOR 103 WK (STUDY DURATION: 103 WK), Dose: 0, 75, 150 MG/KG IN CORN OIL FOR 103 WK (STUDY DURATION: 103 WK)): inactive; negative | carcinogen call (Species: RAT, Strain/Sex: F344/MALE, Route: GAVAGE, Dose: 0, 75, 150 MG/KG IN CORN OIL FOR 103 WK (STUDY DURATION: 103 WK), Dose: 0, 75, 150 MG/KG IN CORN OIL FOR 103 WK (STUDY DURATION: 103 WK), Tumor Site: Type of Lesion: KIDNEY: TUBULAR CELL ADENOMA): equivocal

C#C[C@]1(O)CC[C@H]2[C@@H]3CCC4=C(CCC(=O)C4)[C@H]3CC[C@@]21C
carcinogen call (Species: MOUSE, Route: ORAL, Tumor Site: Type of Lesion: MAMMARY GLAND, PITUITARY GLAND): active; positive | carcinogen call (Species: RAT, Route: ORAL, Tumor Site: Type of Lesion: LIVER, MAMMARY GLAND, PITUITARY GLAND, Tumor Site: Type of Lesion: LIVER, MAMMARY GLAND, PITUITARY GLAND): active; positive

CN1CCCC1=O
carcinogen call (Species: MOUSE, Strain/Sex: B6C3F1/FEMALE, Route: ORAL, Dose: 0, 600, 1200, 7200 PPM IN DIET FOR 18 MO (STUDY DURATION: 18 MO), Dose: 0, 600, 1200, 7200 PPM IN DIET FOR 18 MO (STUDY DURATION: 18 MO), Tumor Site: Type of Lesion: LIVER: HEPATOCELLULAR ADENOMA, HEPATOCELLULAR CARCINOMA): active; positive | carcinogen call (Species: MOUSE, Strain/Sex: B6C3F1/MALE, Route: ORAL, Dose: 0, 600, 1200, 7200 PPM IN DIET FOR 18 MO (STUDY DURATION: 18 MO), Dose: 0, 600, 1200, 7200 PPM IN DIET FOR 18 MO (STUDY DURATION: 18 MO), Tumor Site: Type of Lesion: LIVER: HEPATOCELLULAR ADENOMA, HEPATOCELLULAR CARCINOMA): active; positive | carcinogen call (Species: RAT, Strain/Sex: CD-1/FEMALE, Route: INHALATION, Dose: 0, 0.04, 0.4 MG/L 6 HR/D 5D/WK FOR 2 YR (STUDY DURATION: 2 YR), Dose: 0, 0.04, 0.4 MG/L 6 HR/D 5D/WK FOR 2 YR (STUDY DURATION: 2 YR)): inactive; negative | carcinogen call (Species: RAT, Strain/Sex: CD-1/FEMALE, Route: ORAL, Dose: 0, 1600, 5000, 15000 PPM IN DIET FOR 2 YR (STUDY DURATION: 2 YR), Dose: 0, 1600, 5000, 15000 PPM IN DIET FOR 2 YR (STUDY DURATION: 2 YR)): inactive; negative | carcinogen call (Species: RAT, Strain/Sex: CD-1/MALE, Route: INHALATION, Dose: 0, 0.04, 0.4 MG/L 6 HR/D 5D/WK FOR 2 YR (STUDY DURATION: 2 YR), Dose: 0, 0.04, 0.4 MG/L 6 HR/D 5D/WK FOR 2 YR (STUDY DURATION: 2 YR)): inactive; negative | carcinogen call (Species: RAT, Strain/Sex: CD-1/MALE, Route: ORAL, Dose: 0, 1600, 5000, 15000 PPM IN DIET FOR 2 YR (STUDY DURATION: 2 YR), Dose: 0, 1600, 5000, 15000 PPM IN DIET FOR 2 YR (STUDY DURATION: 2 YR)): inactive; negative
